Data taken from US8580965B2, “Substituted sulfonamide compounds” (Gruenenthal GmbH, priority 2006, dated 2013).

target: T1, human B1R receptor (bradykinin 1 receptor) (Homo sapiens, UniProt P46663); assay: FLIPR Ca2+ assay (Fluo-4) on CHO K1 cells stably transfected with the human B1R gene; % activation and % inhibition at 10 μM; type: cell-based; details: CHO-K1, test substance 10 μM; CHO K1 hB1R cells; Ca2+ inflow after 0.5 nM Lys-Des-Arg9-bradykinin; read-out: B1R antagonism, human [10 μM] % inhibition
T1 construct: host or cells: CHO K1 cells (hB1R cells)
T1 sequence (P46663 1-353): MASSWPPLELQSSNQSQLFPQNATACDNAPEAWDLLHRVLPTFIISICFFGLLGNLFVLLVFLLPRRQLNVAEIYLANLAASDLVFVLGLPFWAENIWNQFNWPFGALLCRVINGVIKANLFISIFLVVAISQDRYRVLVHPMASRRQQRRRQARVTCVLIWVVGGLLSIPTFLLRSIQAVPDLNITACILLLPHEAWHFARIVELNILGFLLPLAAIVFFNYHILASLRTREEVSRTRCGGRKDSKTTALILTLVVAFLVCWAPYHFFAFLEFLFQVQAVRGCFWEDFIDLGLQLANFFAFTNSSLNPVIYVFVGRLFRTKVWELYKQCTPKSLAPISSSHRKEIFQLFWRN
Procedure: The agonistic or antagonistic action of substances can be quantified on the bradykinin receptor 1 (B1R) of the species human and rat with ectopically expressing cell lines (CHO K1 cells) and with the aid of a Ca^2+-sensitive dye (Fluo-4) using a fluorescent imaging plate reader (FLIPR). The indication in % activation is based on the Ca^2+ signal after addition of Lys-Des-Arg^9-bradykinin (0.5 nM) or Des-Arg^9-bradykinin (100 nM). Antagonists result in a suppression of the Ca^2+ influx following administration of the agonist. The % inhibition in comparison with the maximum achievable inhibition is indicated.
Functional Investigation on the Bradykinin 1 Receptor (B1R)
The agonistic or antagonistic action of substances can be determined on the bradykinin 1 receptor (B1R) of the human and rat species with the following assay. According to this assay, the Ca^2+ inflow through the channel is quantified with the aid of a Ca^2+-sensitive dyes (Fluo-4 type, Molecular Probes Europe BV, Leiden, The Netherlands) in a fluorescent imaging plate reader (FLIPR, Molecular Devices, Sunnyvale, USA).
Chinese Hamster Ovary cells (CHO K1 cells) which are stably transfected with the human B1R gene (hB1R cells, Euroscreen s.a., Gosselies, Belgium) or the B1R gene of the rat (rB1R cells, Axxam, Milan, Italy) are used. For functional investigations, these cells are plated-out on black 96-well plates with a clear base (BD Biosciences, Heidelberg, Germany) in a density of 20,000-25,000 cells/well. Overnight, the cells are incubated at 37° C. and 5% CO2 in culture medium (hB1R cells: Nutrient Mixture Ham's F12, Gibco Invitrogen GmbH, Karlsruhe, Germany; rB1R cells: D-MEM/F12, Gibco Invitrogen, Karlsruhe, Germany) with 10 vol. % FBS (foetal bovine serum, Gibco Invitrogen GmbH, Karlsruhe, Germany). On the following day, the cells are loaded with 2.13 μM Fluo-4 (Molecular Probes Europe BV, Leiden, The Netherlands) in HBSS buffer (Hank's buffered saline solution, Gibco Invitrogen GmbH, Karlsruhe, Germany) […] (Sigma-Aldrich, Taufkirchen, Germany) and 10 mM HEPES (Sigma-Aldrich, Taufkirchen, Germany) for 60 min at 37° C. The plates are subsequently washed 2× with HBSS buffer, and HBSS buffer which additionally contains 0.1% BSA (bovine serum albumin; Sigma-Aldrich, Taufkirchen, Germany), 5.6 mM glucose and 0.05% gelatine (Merck KGaA, Darmstadt, Germany) is added. After a further incubation of 20 minutes at room temperature, the plates are inserted into the FLIPR for Ca^2+ measurement. The Ca^2+-dependent fluorescence is measured here before and after addition of substances (λex=488 nm, λem=540 nm). The quantification is effected by measurement of the highest fluorescence intensity (FC, fluorescence counts) over time.
The FLIPR protocol comprises 2 additions of substance. Test substances (10 μM) are first pipetted on to the cells and the Ca^2+ inflow is compared with the control (hB1R: Lys-Des-Arg^9-bradykinin 0.5 nM; rB1R: Des-Arg^9-bradykinin 100 nM). The value in % activation based on the Ca^2+ signal after addition of Lys-Des-Arg^9-bradykinin (0.5 nM) or Des-Arg^9-bradykinin (100 nM) is obtained therefrom. After incubation for 10 minutes, 0.5 nM Lys-Des-Arg^9-bradykinin (hB1R) or 100 nM Des-Arg^9-bradykinin (rB1R) are applied and the inflow of Ca^2+ is likewise determined. Antagonists lead to a suppression of the Ca^2+ inflow. % inhibition compared with the maximum inhibition which can be achieved is calculated. The compounds show a good activity on the human and on the rat receptor. The following data were determined by way of example: […]

Row | SMILES | inhibition at 10 µM [%]
1 | COc1cc(C)c(S(=O)(=O)N2CCN(CCOCC(=O)N3CCC(O)(c4cccnc4)CC3)CC2)c(C)c1C [Example 47, 1-(4′-hydroxy-3′,4′,5′,6′-tetrahydro-2′H-[3,4′]bipyridinyl-1′-yl)-2-{2-[4-(4-methoxy-2,3,6-trimethyl-phenylsulfonyl)-piperazin-1-yl]-ethoxy}-ethanone] | -3.95
2 | COc1cc(C)c(S(=O)(=O)N2CCN(CCOCC(=O)N3CCC(O)(c4ccccn4)CC3)CC2)c(C)c1C [Example 48, 1-(4′-hydroxy-3′,4′,5′,6′-tetrahydro-2′H-[2,4′]bipyridinyl-1′-yl)-2-{2-[4-(4-methoxy-2,3,6-trimethyl-phenylsulfonyl)-piperazin-1-yl]-ethoxy}-ethanone] | -4.32
3 | O=C(COCC1CCCCN1S(=O)(=O)c1ccc(Cl)cc1)N1CCC(O)(Cc2ccccc2)CC1 (stereo not drawn) [Example 53, 1-(4-benzyl-4-hydroxy-piperidin-1-yl)-2-[1-(4-chloro-phenylsulfonyl)-piperidin-2-ylmethoxy]-ethanone] | -11.4
4 | O=C(COC1CCN(S(=O)(=O)c2ccccc2)CC1)N1CCC(O)(c2ccccn2)CC1 [Example 54, 2-(1-phenylsulfonyl-piperidin-4-yloxy)-1-(4′-hydroxy-3′,4′,5′,6′-tetrahydro-2′H-[2,4′]bipyridinyl-1′-yl)-ethanone] | -13.1
5 | COc1cc(C)c(S(=O)(=O)N2CCCC(OCC(=O)N3CCC(O)(c4ccccn4)CC3)C2)c(C)c1C (stereo not drawn) [Example 55, 1-(4′-hydroxy-3′,4′,5′,6′-tetrahydro-2′H-[2,4′]bipyridinyl-1′-yl)-2-[1-(4-methoxy-2,3,6-trimethyl-phenylsulfonyl)-piperidin-3-yloxy]-ethanone] | -13.2
6 | COc1ccc(S(=O)(=O)N2CCCC2COCC(=O)N2CCC(O)(Cc3ccccc3)CC2)cc1 (stereo not drawn) [Example 57, 1-(4-benzyl-4-hydroxy-piperidin-1-yl)-2-[1-(4-methoxy-phenylsulfonyl)-pyrrolidin-2-ylmethoxy]-ethanone] | -16.2
7 | COc1ccc(S(=O)(=O)N2CCCCC2COCC(=O)N2CCC(O)(Cc3ccccc3)CC2)c(OC)c1 (stereo not drawn) [Example 60, 1-(4-benzyl-4-hydroxy-piperidin-1-yl)-2-[1-(2,4-dimethoxy-phenylsulfonyl)-piperidin-2-ylmethoxy]-ethanone] | -44
8 | COc1cc(C)c(S(=O)(=O)N(C)CCCC(=O)N2CCC(O)(c3cccnc3)CC2)c(C)c1 [Example 114, N-(4-(4-hydroxy-4-(pyridin-3-yl)piperidin-1-yl)-4-oxobutyl)-4-methoxy-N,2,6-trimethylphenylsulfonamide] | 102
9 | CN(CCCC(=O)N1CCC(O)(c2cccnc2)CC1)S(=O)(=O)c1ccc(Cl)cc1Cl [Example 116, 2,4-dichloro-N-(4-(4-hydroxy-4-(pyridin-3-yl)piperidin-1-yl)-4-oxobutyl)-N-methylphenylsulfonamide] | 91.2
10 | COc1cc(C)c(S(=O)(=O)N2CCCCC2COCCC(=O)N2CCC(O)(Cc3ccccc3)CC2)c(C)c1 (stereo not drawn) [Example 179, 1-(4-benzyl-4-hydroxypiperidin-1-yl)-3-((1-(4-methoxy-2,6-dimethylphenylsulfonyl)piperidin-2-yl)methoxy)propan-1-one] | 61.5
11 | COc1cc(C)c(S(=O)(=O)N2CCCCC2COCCC(=O)N2CCC(O)(c3ccc(Cl)c(C(F)(F)F)c3)CC2)c(C)c1 (stereo not drawn) [Example 180, 1-(4-(4-chloro-3-(trifluoromethyl)phenyl)-4-hydroxypiperidin-1-yl)-3-((1-(4-methoxy-2,6-dimethylphenylsulfonyl)piperidin-2-yl)methoxy)propan-1-one] | 39.9

More lines, now with the values ahead:

Row | inhibition at 10 µM [%] | SMILES
12 | 75.4 | COc1cc(C)c(S(=O)(=O)N2CCCCC2COCCC(=O)N2CCC(O)(c3ccc(Cl)cc3)CC2)c(C)c1 (stereo not drawn) [Example 181, 1-(4-(4-chlorophenyl)-4-hydroxypiperidin-1-yl)-3-((1-(4-methoxy-2,6-dimethylphenylsulfonyl)piperidin-2-yl)methoxy)propan-1-one]
13 | 80 | COc1cc(C)c(S(=O)(=O)N2CCCCC2COCCC(=O)N2CCC(O)(c3ccc(Br)cc3)CC2)c(C)c1 (stereo not drawn) [Example 182, 1-(4-(4-bromophenyl)-4-hydroxypiperidin-1-yl)-3-((1-(4-methoxy-2,6-dimethylphenylsulfonyl)piperidin-2-yl)methoxy)propan-1-one]
14 | 68.2 | COc1cc(C)c(S(=O)(=O)N2CCCCC2COCCC(=O)N2CCC(O)(c3ccccc3)CC2)c(C)c1 (stereo not drawn) [Example 183, 1-(4-hydroxy-4-phenylpiperidin-1-yl)-3-((1-(4-methoxy-2,6-dimethylphenylsulfonyl)piperidin-2-yl)methoxy)propan-1-one]
15 | 56.1 | COc1cc(C)c(S(=O)(=O)N2CCCC(OCCC(=O)N3CCC(O)(c4ccc(Cl)cc4)CC3)C2)c(C)c1 (stereo not drawn) [Example 184, 1-(4-(4-chlorophenyl)-4-hydroxypiperidin-1-yl)-3-(1-(4-methoxy-2,6-dimethylphenylsulfonyl)piperidin-3-yloxy)propan-1-one]
16 | 54.6 | COc1cc(C)c(S(=O)(=O)N2CCCC(OCCC(=O)N3CCC(O)(c4ccc(Br)cc4)CC3)C2)c(C)c1 (stereo not drawn) [Example 185, 1-(4-(4-bromophenyl)-4-hydroxypiperidin-1-yl)-3-(1-(4-methoxy-2,6-dimethylphenylsulfonyl)piperidin-3-yloxy)propan-1-one]
17 | 99.8 | COc1cc(C)c(S(=O)(=O)N2CCC(OCCC(=O)N3CCC(O)(c4ccc(Cl)cc4)CC3)C2)c(C)c1 (stereo not drawn) [Example 186, 1-(4-(4-chlorophenyl)-4-hydroxypiperidin-1-yl)-3-(1-(4-methoxy-2,6-dimethylphenylsulfonyl)pyrrolidin-3-yloxy)propan-1-one]
18 | 99.9 | COc1cc(C)c(S(=O)(=O)N2CCC(OCCC(=O)N3CCC(O)(c4ccc(Br)cc4)CC3)C2)c(C)c1 (stereo not drawn) [Example 187, 1-(4-(4-bromophenyl)-4-hydroxypiperidin-1-yl)-3-(1-(4-methoxy-2,6-dimethylphenylsulfonyl)pyrrolidin-3-yloxy)propan-1-one]
19 | 52.7 | COc1cc(C)c(S(=O)(=O)N2CCC(OCCC(=O)N3CCC(O)(c4ccccc4)CC3)C2)c(C)c1 (stereo not drawn) [Example 188, 1-(4-hydroxy-4-phenylpiperidin-1-yl)-3-(1-(4-methoxy-2,6-dimethylphenylsulfonyl)pyrrolidin-3-yloxy)propan-1-one]
20 | 54.2 | COc1cc(C)c(S(=O)(=O)N2CCC(OCCC(=O)N3CCC(O)(Cc4ccccc4)CC3)C2)c(C)c1 (stereo not drawn) [Example 189, 1-(4-benzyl-4-hydroxypiperidin-1-yl)-3-(1-(4-methoxy-2,6-dimethylphenylsulfonyl)pyrrolidin-3-yloxy)propan-1-one]
21 | 103 | COc1cc(C)c(S(=O)(=O)N2CCC(OCCC(=O)N3CCC(O)(c4cccc(C(F)(F)F)c4)CC3)C2)c(C)c1 (stereo not drawn) [Example 190, 1-(4-hydroxy-4-(3-(trifluoromethyl)phenyl)piperidin-1-yl)-3-(1-(4-methoxy-2,6-dimethylphenylsulfonyl)pyrrolidin-3-yloxy)propan-1-one]
